We go through 10 compounds from US9718809B2, “Bisarylsulfonamides useful in the treatment of inflammation and cancer” (Kancera AB, priority 2011, dated 2017).

Data set [1] relates to F-2,6-P2 in MIA PaCa-2 cells. The data set is described as follows: Quantification of F-2,6-P2 (Van Schaftingen coupled enzyme assay) in MIA PaCa-2 cells. The data set is classed as cell-based. The settings on record: Homo sapiens, read-out: IC50 based on quantification of F-2,6-P2. An excerpt:
(§1) A method for quantification of F-2,6-P2 has been described by Van Schaftingen et al. (1982) Eur. J. Biochem. 129, 191-5. This sensitive assay is based on the potent activation of pyrophosphate dependent phosphofructokinase-1 (PPi-PFK) from potato tubers by F-2,6-P2. The use of a series of coupled enzymes leads to a consumption of NADH (nicotinamide adenine dinucleotide) that can be followed spectrophotometrically (an updated protocol is available in Van Schaftingen, (1984) Methods of Enzymatic Analysis (Bergmeyer, H. U., ed.), 3rd edn., vol. 6, pp. 335-341, Verlag Chemie, Weinheim). A protocol for measurements in 96-well microtiter plate format is also available (Bruni et al., (1989) Anal. Biochem. 178, 324-6).
(§2) The levels of F-2,6-P2 have been determined using the van Shaftingen assay as described in the protocol below, in six different cancer cell lines endogenously expressing varying levels of the different isoforms of PFK-2/BPase-2 (MCF-7, PANC-1, NUGC-3, SW480, SW620 and MIA PaCa-2). All reagents were purchased from commercial sources or prepared in-house.
Cell line F (MIA PaCa-2, human pancreatic carcinoma): MIA PaCa-2 cells (ATCC-CRL-1420), lot. no. 59270201. Cells were seeded at a concentration of ˜250 000 cells/mL in 100 μL growth medium (˜25 000 cells/well). […]

The subject of the next data set is NMRI mice. The data set is described as follows: In vivo tolerance in NMRI mice. To be noted: 25 and 45 mg/kg. Details: species or system mouse. The method, then:
In vivo tolerance was tested in NMRI mice using Examples 157 and 183 in 2 doses (25 and 45 mg/kg), following intraperitoneal injections daily for seven days.

In another data set the test system is SW480 cells. Put plainly: Inhibition of cancer cell proliferation, total cellular protein (Sulphorhodamine B), SW480. To be noted: Homo sapiens, 72 h, read-out: IC50 based on quantitation of total cellular protein after treatment. The method, then: (§3) To assess the antiproliferative response elicited by the compounds of the present invention in different tumour cell lines, total cellular protein in samples was quantified using the Sulphorhodamine B kit, TOX6, (Sigma-Aldrich). The protocol is based on quantitation of total cellular protein after indicated treatments and incubation times using the Sulphorhodamine B kit, TOX6, (Sigma-Aldrich).
(§4) Briefly, after protein precipitation using TCA according to the manufacturer's instructions, the sulphorhodamine dye (80 μL/well) was added to the air-dried wells. After 20 min incubation at room temperature, the dye was discarded and the samples were gently rinsed with 1% HOAc until clear. After air drying, bound dye was solubilised in 200 μL 10 mM Tris base, and the absorbance of dye was measured at 565 nm. To quantify growth, samples were collected also at t=0 h, and the resulting absorbance was set to 100%.
(§5) For experiments studying the effect of the herein described compounds per se, i.e. without combination treatment with cisplatin, the above protocol was applied with the following modifications. See Table II for details for each specific cell line. Briefly, cells were plated at a density of 6,000 cells/well 96-well Corning Costar tissue culture plates (CLS3596, Sigma-Aldrich) in assay medium and allowed to attach over night at 37° C., 5% CO2. Day 2 the compounds were diluted ½ in dose response curve mode in 100% DMSO, required volume was transferred to assay medium to a maximal DMSO concentration of 0.1%. The diluted compounds were added to the cells with a starting dose response concentration of 100 μM. All compounds were tested in duplicate plates.
After protein precipitation using TCA according to the manufacturer's instructions, the sulforhodamine B dye (50 μL/well) was added to the air-dried wells. […] After air drying, bound dye was solubilised in 100 μL 10 mM Tris base, and the absorbance of dye was measured at 530 nm and a background absorbance (subtract from the measurement at 530 nm) at 690 nm. To quantify growth, samples were collected also at t=0 h.

Another data set concerns F-2,6-P2 in SW620 cells. Put plainly: Quantification of F-2,6-P2 (Van Schaftingen coupled enzyme assay) in SW620 cells. To be noted: Homo sapiens, SW-620, read-out: IC50 based on quantification of F-2,6-P2. Format: cell-based.
Text: as §1, §2
Cell line E (SW620, human colorectal adenocarcinoma): SW620 cells (ATCC-CCL-227), lot. no. 58483168. Cells were seeded at a concentration of ˜350 000 cells/mL in 100 μL growth medium (˜35 000 cells/well).
(§6) Growth medium (cell lines B-F): Dulbecco's Modified Eagle's Medium, DMEM, VWR, LONZ12-604F; 10% FBS, Invitrogen, 10270-106. […]

The next data set concerns PANC-1 cells. The data set is described as follows: Inhibition of cancer cell proliferation, total cellular protein (Sulphorhodamine B), PANC-1. The settings on record: Homo sapiens, 72 h, read-out: IC50 based on quantitation of total cellular protein after treatment. The method, then:
as §3, §4, §5
(§7) After protein precipitation using TCA according to the manufacturer's instructions, the sulforhodamine B dye (50 μL/well) was added to the air-dried wells. After 20 min incubation at room temperature, the dye was discarded and the samples were gently rinsed with 1% HOAc until clear. After air drying, bound dye was solubilised in 100 μL 10 mM Tris base, and the absorbance of dye was measured at 530 nm and a background absorbance (subtract from the measurement at 530 nm) at 690 nm. To quantify growth, samples were collected also at t=0 h.

Another data set concerns NUGC-3 cells. Put plainly: Inhibition of cancer cell proliferation, total cellular protein (Sulphorhodamine B), NUGC-3. To be noted: Homo sapiens, 72 h, read-out: IC50 based on quantitation of total cellular protein after treatment. How it is done: as §3, §4, §5, §7
For another data set, the system named is F-2,6-P2 in SW480 cells. The data set is described as follows: Quantification of F-2,6-P2 (Van Schaftingen coupled enzyme assay) in SW480 cells. The data set is classed as cell-based. The settings on record: Homo sapiens, read-out: IC50 based on quantification of F-2,6-P2.
Text: as §1, §2
Cell line D (SW480, human colorectal adenocarcinoma): SW480 cells (ATCC-CCL-228), lot. no. 58471880. Cells were seeded at a concentration of ˜350 000 cells/mL in 100 μL growth medium (˜35 000 cells/well).
as §6

A further data set relates to F-2,6-P2 in NUGC-3 cells. The data set is described as follows: Quantification of F-2,6-P2 (Van Schaftingen coupled enzyme assay) in NUGC-3 cells. Format: cell-based. To be noted: Homo sapiens; NUGC-3 cells seeded at 25 000 cells/well; read-out: IC50 based on quantification of F-2,6-P2.
Text: as §1, §2
Cell line C (NUGC-3, human gastric cancer cell line): NUGC-3 cells (JCRB0822), lot no. 04272009. Growth medium: RPMI1640, #R8758, Sigma-Aldrich; 10% FBS, Invitrogen, 10270-106 or Dulbecco's Modified Eagle's Medium, DMEM, VWR, LONZ12-604F; 10% FBS, Invitrogen, 10270-106. Cells were seeded at a concentration of ˜350 000 cells/mL in 100 μL growth medium (˜35 000 cells/well).
Starvation medium (cell lines A-F): DMEM/F12 without phenol red and glucose free, SVA, 991373; 0.25% FBS, Invitrogen, 10270-106.
Induction medium (cell lines A-F): DMEM/F12 without phenol red and glucose free, SVA, 991373; 0.25% FBS, Invitrogen, 10270-106 (same as starvation medium).
Cells were seeded in 96-well Corning Costar tissue culture plates (CLS3595, Sigma-Aldrich) using the concentrations specified above for the different cell lines A-F and incubated over night at 37° C. and 5% CO2. Row A in the plate was left empty and the cell lines added to rows B-H. Next day the growth medium was discarded and replaced with 100 μL starvation medium. The plates were incubated for 18 h at 37° C. and 5% CO2. After 18 h of starvation the cells were induced with 100 μL compound or control solutions. Compounds were either tested in two concentrations (50 μM and 10 μM) or in dose response curves starting from 50 μM. The final DMSO concentration in assay plates was 0.5%. Also a dose response curve of a reference inhibitor was included in row H on each plate. All compounds were tested in duplicate plates. Compounds (in 96 well CLS 3365, Sigma-Aldrich plates) were serial diluted in DMSO from 10 mM compound DMSO stock solutions with Janus (automated liquid handling workstation from PerkinElmer). Five μL were transferred to a Greiner deep well plate (736-0155, VWR) with 495 μL starvation medium. The final start concentration of compounds in the dilution plate was 100 μM, 1% DMSO. For compounds tested as single points, 10 mM compound solutions were diluted five fold in DMSO to 2 mM, followed by the transfer of 5 μL to separate dilution plates with 495 μL starvation medium. The final concentrations of compounds in these dilution plates were 100 or 20 μM, respectively, and final concentration of DMSO was 1%. The plates were incubated at 37° C. and 5% CO2 for 1 h, followed by the addition of 10 μL 20 mM D-glucose in starvation medium. Controls, with and without 1 mM glucose, were included in row B. The final assay volume was 210 μL per well. After 2 h of incubation at 37° C. and 5% CO2, the supernatants were discarded and the cells lysed by the addition of 25 μL 250 mM NaOH. The plates were incubated at 37° C. and 5% CO2 for 5 min followed by an addition of 75 μL MilliQ dH2O. The supernatants were further diluted with 210 μL MilliQ dH2O to a final concentration of 20 mM NaOH. 200 μL were transferred to NUNC 96-well plates (7322661, VWR) and the plates were sealed and stored at −20° C. until analysis. […]

As a reminder, the IC50 is the point on the concentration scale where inhibition reaches its midpoint. `COC(=O)c1ccc(NS(=O)(=O)c2cc(-c3cc(F)ccc3O)c(Cl)s2)cc1O` [Example 157, methyl 4-({[5-chloro-4-(5-fluoro-2-hydroxyphenyl)-2-thienyl]sulfonyl}amino)-2-hydroxybenzoate]: in data set [1], the IC50 came to 2 µM. Moreover, the “histological examinations of organs” value in the data set with NMRI mice (intraperitoneal daily for seven days, adrenal gland, brain, cerebellum, heart, intestines, kidneys, liver, lungs, mesenteric lymph node, pancreas, spleen) is reported as “Specific lesions consistent with toxic damage were not observed”. Also, the “macro observations during and after treatment” value in the data set with NMRI mice (intraperitoneal injections daily for seven days) is “no sign of abnormal behavior or health problem”.
For `COCCOC(=O)c1ccc(NS(=O)(=O)c2cccc(-c3cc(F)ccc3F)c2)cc1O` [Example 172, 2-Methoxyethyl 4-{[(2′,5′-difluorobiphenyl-3-yl)sulfonyl]amino}-2-hydroxybenzoate], the IC50 in the data set on SW480 cells turned out to be 15.9 µM.
The same measure, in the same setting: under `COCC(C)OC(=O)c1ccc(NS(=O)(=O)c2cc(Cl)cc(Cl)c2)cc1O` (centres unmarked) [Example 192, 2-Methoxy-1-methylethyl 4-{[(3,5-dichlorophenyl)sulfonyl]amino}-2-hydroxybenzoate] stands 22.3 µM.
As to `COC(=O)c1ccc(NS(=O)(=O)c2cc(-c3ccccc3O)c(Cl)s2)cc1O` [Example 156, Methyl 4-({[5-chloro-4-(2-hydroxyphenyl)-2-thienyl]sulfonyl}amino)-2-hydroxybenzoate], the IC50 with F-2,6-P2 in SW620 cells is 2.8 µM; in the data set on PANC-1 cells it was 16.1 µM.
Regarding `COC(=O)c1ccc(NS(=O)(=O)c2cccc(-c3cc(F)ccc3O)c2)cc1O` [Example 134, Methyl 4-{[(5′-fluoro-2′-hydroxybiphenyl-3-yl)sulfonyl]amino}-2-hydroxybenzoate], the half-inhibitory concentration (IC50) with NUGC-3 cells worked out at 13 µM.
As to `O=C(OCCCN1CCOCC1)c1ccc(NS(=O)(=O)c2c(Cl)sc(Cl)c2Cl)cc1O` [Example 164, 3-Morpholin-4-ylpropyl 2-hydroxy-4-{[(2,4,5-trichloro-3-thienyl)sulfonyl]amino}benzoate], the IC50 in the data set on F-2,6-P2 in SW480 cells was found to be 5.4 µM.
Regarding `COC(=O)c1ccc(NS(=O)(=O)c2cc(-c3cc(F)ccc3F)c(Cl)s2)cc1O` [Example 45, Methyl 4-({[5-chloro-4-(2,5-difluorophenyl)-2-thienyl]sulfonyl}amino)-2-hydroxybenzoate], the IC50 in the data set with NUGC-3 cells was 22.5 µM.
With `COC(=O)c1ccc(NS(=O)(=O)c2cccc(-c3ccccc3O)c2)cc1O` [Example 82, Methyl 2-hydroxy-4-{[(2′-hydroxybiphenyl-3-yl)sulfonyl]amino}benzoate], the IC50 is 1.08 µM in the data set with F-2,6-P2 in NUGC-3 cells and 6.2 µM with F-2,6-P2 in SW480 cells.
Consider `COCC(C)OC(=O)c1ccc(NS(=O)(=O)c2cc(Cl)c(Cl)s2)cc1O` (centres unmarked) [Example 194, 2-Methoxy-1-methylethyl 4-{[(4,5-dichlorothiophen-2-yl)sulfonyl]amino}-2-hydroxybenzoate], for which the IC50 in the data set on F-2,6-P2 in SW620 cells worked out at 0.8 µM.
Turning to `CCC(COC)OC(=O)c1ccc(NS(=O)(=O)c2cc(Cl)c(Cl)s2)cc1O` (centres unmarked) [Example 195, 1-(Methoxymethyl)propyl 4-{[(4,5-dichlorothiophen-2-yl)sulfonyl]amino}-2-hydroxybenzoate], the IC50 in the data set with SW480 cells turned out to be 20.4 µM.
